Data reported in patent US7495028B2, “R-bambuterol, its preparation and therapeutic uses” (priority 2002, dated 2009).
Where a name gives a salt, the structure may show the parent alone. Marks after values point to notes of the source that are not given here.

Legend:
[1] = test system: isolated guinea pig lung strip; experiment: Bronchodilating effect on isolated guinea pig lung strip pre-contracted by histamine; assay type: cell-based
Method: Test method: Guinea pigs (Dunlin-Hartley, ca. 400 g) were used. After anesthesia, the chest was opened and sections of lung tissue about 3 mm in width, were dissected quickly from a lower lobe with the longitudinal axis of the strip cut parallel to the bronchus. The strips were further divided into two thin strips with approximate dimension of 20×3×3 mm. With threads attached to each end, strips were mounted in organ baths containing aerated Krebs solution at 37° C. A load of between 0.5-1.0 g force was applied by gentle stretching, and the tissue was allowed to equilibrate for 60 min with the solution changed at 20 min intervals. The lung strips were pre-contracted by 10^−5 M histamine, then an equal volume of solution containing R-bambuterol or racemic bambuterol was added cumulatively into the organ bath. The contractions of the lung strips were measured isometrically with force-displacement transducers and recorded.
Based on the pharmacokinetic studies of racemic bambuterol hydrochloride, about 50% of absorbed bambuterol is hydrolyzed to terbutaline, the active-parent form, in plasma. There is little cholinesterase in the lung strip preparation, so neither the test compound nor racemic bambuterol has significant effects. In order to test the compound of invention in vitro on isolated guinea-pig lung tissue, R-bambuterol and racemic bambuterol were administrated orally to guinea pigs at a dose of 8 mg/kg. Four hours later, blood was collected from the animals, and the serum containing the active parent form of the test compounds were prepared. The concentration of the active parent form, i.e. terbutaline, in serum measured using BPLC, was 64-70 ng/ml in the animal treated with R-bambuterol and 62-69 ng/ml in the animal treated with racemic bambuterol. The serum containing the active form of test compound was then added into the organ in a certain volume, so that the final concentration of the active forms of test compounds was 0.25 ng/ml in the organ bath. Concentration-response relationships were obtained using a cumulative dose schedule by adding the same volume of the serum into the organ bath. The test using the serum containing the active form of racemic bambuterol was done in parallel with the test compound in the same manner as described above.

rats = experiment: Cardiovascular effects in anesthetized rats; assay type: in vivo; conditions: both, Sprague Dawley, rat, in vivo, 20 min
Excerpt: Test method: Rats (Sprague Dawley, 250-300 g) were randomized into two groups (n=6, equal sexes). After anesthesia, plastic tubing was introduced into a carotid artery of each animal and connected to pressure transducers to record mean artery pressure (MBP) and heart rate (HR). Another tube was introduced into the left ventricular chamber via the another carotid artery and connected to a pressure transducer. Left ventricular systolic pressure (LVSP) and the first order of differential of LVSP (dp/dt) as an index for inotropic effects were recorded. R-Bambuterol and racemic bambuterol hydrochloride were dissolved in saline and administrated intravenously at 30 mg/kg to each animal. The HR, MBP and Max dp/dt were measured before treatment (control) and after the treatments when the maximum response occurred, and 20 min after treatment as indication of recovery.

[2] = test system: sensitized conscious guinea pigs exposed to aerosol ovalbumin; experiment: Protection against allergic bronchospasm in ovalbumin-sensitized conscious guinea pigs; assay type: in vivo, guinea pig
Method: Test method: Guinea pigs (Dunkin-Hartley strain, 200±10 g, equal sexes) were used in this study. Ovalbumin (5%) solution was injected into guinea pigs subcutaneously and intraperitoneally to sensitize the animals. Male and female sensitized animals were kept separately for 14 days, and food and water was available ad libitum. On day 14 after sensitization, animals were randomized into groups of 8 each. The animals were treated orally with saline (control) or various concentrations of R-bambuterol or racemic bambuterol in saline. Four hours after the treatment, each animal was restrained in a glass chamber. After stabilization the animal was exposed to an aerosol of ovalbumin generated by a nebulizer from a 5% solution of ovalbumine at a rate of 0.5 ml/min for a period of 15 seconds. The animal was removed from the chamber, and the behavior of the animal was monitored. The number of the sensitized animals which collapsed were counted, and the latency time, i.e. the time from the exposure to aerosol ovalbumin to the collapse of the animal, was recorded.

[3] = test system: conscious guinea pigs exposed to aerosol histamine; experiment: Protection against histamine-evoked asthma in conscious guinea pigs; assay type: in vivo, guinea pig; conditions: for Collapsed n: 8 animals; for Potency relative to racemic bambuterol: bronchospasmolytic / protective effect, hydrochloride; for % collapse / Latency time of collapse: dose-response, four hours before exposure
Method: Test methods: Guinea pigs (Dunki-Hartley strain, 190±30 g) were fasted overnight but given water ad libidum. The animals were restrained individually in a glass chamber and exposed to aerosol histamine generated by a nebulizer from a 0.2% aqueous solution of histamine under constant pressure at dose of 0.5 ml/min for a period of 15 sec. The animal was removed from the chamber, and its behavior was monitored. A sign of collapse and the latency time from exposure to collapse were recorded. Only the animals with latency time less than 120 sec, as an indication of sensitive to histamine, were chosen for later experiments. The animals chosen were allowed to recover completly by resting for 24 hours before experiments. Test compounds and racemic bambuterol hydrochloride were dissolved in saline.
Time course of the effect of test compounds: R-Bambuterol hydrochloride or racemic bambuterol hydrochloride at 2, 4 and 8 mg/kg, and vehicle alone, were administered to the guinea pigs orally via a stomach tube. Exposure of treated animals to aerosol histamine (as above) was done at 1, 4 and 24 hours after treatment. For each experimental group, there were a total of 8 animals with equal number of both sexes, and no repeated exposure was made for individual experimental animals.
Study of dose-response of test compounds: Four hours before the exposure to aerosol histamine, animals were randomized into groups (n=8, equal male and female), and given R-bambuterol hydrochloride or racemic bambuterol in doses of 0.25, 0.5, 1.0, 2.0, 4.0 and 8.0 mg/kg, and vehicle control, orally via a stomach tube. The numbers of collapsed animal as a result of asthmatic reaction to aerosol histamine were counted, and the latency times were recorded. Both of these parameters were used as quantitative measurements of the protective effects of the treatments on bronchospasm evoked by aerosol histamine.

hyperlipidemia mice = experiment: Lipid lowering effects in Tyloxapol-induced hyperlipidemia mice; assay type: in vivo; conditions: for TG lipid level: plasma 24 hours after Tyloxapol
Method: Test method: Male and […] mice, Kunming strain, 35 each, weight 18-22 grams, were used. Food and water were available ad libitum. The animals were randomized into 7 groups (n=10). Groups of animals were administered orafly, via a stomach tube, vehicle (distilled water, two groups), R-bambuterol hydrochloride (10 mg/kg and 5 mg/kg), racemic bambuterol hydrochloride (10 mg/kg and 5 mg/kg) and simvastatin (10 mg/kg) once a day for four days. With the exception of one vehicle—treated group (as control), Tyloxapol (400 mg/kg, Sigma Chemical Co.) was injected into the peritoneal cavity of the mice of all groups immediately after the last treatment on the fourth day in order to induce hyperlipidemia. All the animals were fasted overnight prior to the injection of Tyloxapol. Blood samples were collected by cardiac puncture 24 hours after the injection of Tyloxapol. The blood samples were processed to plasma, and concentration of triglycerides (TG), cholesterol (CHO), high density lipoprotein (HDL), low density lipoprotein (LDL) and very low density lipoprotein (VLDL) were measured with an autoblood analyzer (Olympic, Japan).

[4] = Tyl + 10 mg (10 mg/kg oral once a day for four days)

## CC(C)(C)NCC(O)c1cc(O)cc(O)c1 (racemic) [Active form of RS-bambuterol, racemic terbutaline]
[1]; 0.25 ng/ml active form in organ bath, 10^−5 M histamine pre-contraction
  Percent of Relaxation: 7.6 ± 0.8%
[1]; 0.50 ng/ml active form
  Percent of Relaxation: 10.8 ± 2.1%
[1]; 0.75 ng/ml active form
  Percent of Relaxation: 26.5 ± 3.4%
[1]; 1.00 ng/ml active form
  Percent of Relaxation: 39.6 ± 4.0%
[1]; 1.25 ng/ml active form
  Percent of Relaxation: 45.7 ± 6.7%

## CN(C)C(=O)Oc1cc(OC(=O)N(C)C)cc([C@@H](O)CNC(C)(C)C)c1 [R-bambuterol, R-Bambuterol hydrochloride]
rats
  HR 20 min after Δ, % of Control: 3.7%
  Maxdp/dt 20 min after Δ, % of control: 5.0%
[2]; 1 mg/kg oral
  % collapsed: 63%
  Latency time: 193 ± 30 s
[2]; 1 mg/kg oral (n = 8), four hours before aerosol ovalbumin
  Number collapsed: 5
[2]; 4 mg/kg oral
  % collapsed: 25%
  Latency time: 293 ± 27 s
[2]; 4 mg/kg oral (n = 8)
  Number collapsed: 2
[2]; 8 mg/kg oral
  % collapsed: 0%
  Latency time: >360*# sec
[3]; 2 mg/kg oral, 1st Hour
  Collapsed %: 50.0* %
  Latency: 231 ± 70 s
  Collapsed n: 4.0
[3]; 2 mg/kg oral, 4th Hour
  Collapsed %: 25.0* %
  Latency: 295 ± 65 s
  Collapsed n: 2.0
[3]; 2 mg/kg oral, 24th Hour
  Collapsed %: 62.5%
  Latency: 202 ± 67 s
  Collapsed n: 5.0
[3]; 4 mg/kg oral, 1st Hour
  Collapsed %: 37.5* %
  Latency: 258 ± 71 s
  Collapsed n: 3.0
[3]; 4 mg/kg oral, 4th Hour
  Collapsed %: 0.0* %
  Latency: >360 s
  Collapsed n: 0.0
[3]; 4 mg/kg oral, 24th Hour
  Collapsed %: 50.0%
  Latency: 242 ± 64 s
  Collapsed n: 4.0
[3]; 8 mg/kg oral, 1st Hour
  Collapsed %: 25.0%
  Latency: 299 ± 57 s
  Collapsed n: 2.0
[3]; 8 mg/kg oral, 4th Hour
  Collapsed %: 0.0%
  Latency: >360 s
  Collapsed n: 0.0
[3]; 8 mg/kg oral, 24th Hour
  Collapsed %: 37.5%
  Latency: 256 ± 72 s
  Collapsed n: 3.0
[3]; Cavia porcellus, 4 h, oral, four hours before aerosol histamine, read-out: ED50 (protection against collapse)
  ED50: 0.91 mg/kg
[3]; oral
  Potency relative to racemic bambuterol: about twice
[3]; oral, listed as R enantiomer of bambuterol
  Potency relative to racemic bambuterol: about twice
[3]; oral, listed as R-Bambuterol
  Potency relative to racemic bambuterol: about twice
[3]; 0.25 mg/kg oral
  % collapse: 87.5%
  Latency time of collapse: 110 s
[3]; 0.5 mg/kg oral
  % collapse: 75%
  Latency time of collapse: 160 s
[3]; 1 mg/kg oral
  % collapse: 50%
  Latency time of collapse: 209 s
[3]; 2 mg/kg oral
  % collapse: 25%
  Latency time of collapse: 295 s
[3]; 4 mg/kg oral
  % collapse: 0%
  Latency time of collapse: >360 s
[3]; 8 mg/kg oral
  % collapse: 0%
  Latency time of collapse: >360 s
[3]; oral 2 to 8 mg/kg
  Onset of protective effects after administration: one
  Time of maximum protective effects after administration: 4 h
[3]; oral, collapse after aerosol histamine
  Dose at which full protective effect was seen: 4 mg/kg
[3]; oral, latency time to collapse
  Dose at which maximum effects on latency were seen: 4 mg/kg
Hyperlipidemia mice; Tyl + 5 mg
  CHO lipid level: 189 ± 83 mg/dL
  HDL lipid level: 42 ± 27 mg/dL
  LDL lipid level: 34 ± 15 mg/dL
  VLDL lipid level: 50 ± 26 mg/dL
Hyperlipidemia mice; Tyl + 5 mg (5 mg/kg oral once a day for four days)
  TG lipid level: 323 ± 176 mg/dL
Hyperlipidemia mice; Tyl + 10 mg
  CHO lipid level: 119 ± 16 mg/dL
  HDL lipid level: 53.3 ± 6.7 mg/dL
  LDL lipid level: 29 ± 5 mg/dL
  VLDL lipid level: 35 ± 7 mg/dL
Hyperlipidemia mice; [4]
  TG lipid level: 105 ± 18 mg/dL

## CCC(C)(C)C(=O)O[C@H]1C[C@@H](C)C=C2C=C[C@H](C)[C@H](CC[C@@H]3C[C@@H](O)CC(=O)O3)[C@H]21 [simvastatin]
Hyperlipidemia mice; Tyl + 10 mg
  CHO lipid level: 176 ± 64 mg/dL
  HDL lipid level: 49 ± 16 mg/dL
  LDL lipid level: 42 ± 11 mg/dL
  VLDL lipid level: 85 ± 50 mg/dL
Hyperlipidemia mice; [4]
  TG lipid level: 311 ± 187 mg/dL
